Consider eleven compounds from paper PMC11245370, “3-Position Biaryl Endochin-like Quinolones with Enhanced Antimalarial Performance” (ACS Infectious Diseases, 2024).

Where “and” joins values, the source holds several entries; their conditions need not be identical. Equal values may be shown once.

Data set [1] concerns P. yoelii blood-stage infection. The note with it: mice; for blood stage in vivo efficacy, 4 day Peters test results, NRD (nonrecrudescence dose): oral gavage days 1-4, followed to day 30. The method, then:
(§1) On day 5, a drop of blood was taken from the tail, and a blood smear was prepared, fixed with methanol, and stained with Giemsa. The operator then examined the stained smear microscopically to determine percent parasitemia. […] In this model, animals were inoculated exactly as for the 4 day test on day 0; however, drug was administered only on day 1, whereas smears were made on day 5 and again weekly thereafter for animals that remained aparasitemic. Animals that remained aparasitemic on day 30 were scored as cures.
The P. yoelii 4 day test monitors suppression of patent infection in female CF1 mice. The test began with the inoculation (iv) of parasitized erythrocytes (3.5 × 10^4P. yoelli) (from a donor animal) on the first day of the experiment (D0). […] Initially, the 3-biaryl-ELQs were tested at doses of 0.0025, 0.005, 0.01, 0.03, 0.1, 0.3, 1.0, and 10 mg/kg/day, including a vehicle-only (PEG400) control. After completion of drug treatment, a blood sample was collected (by pricking the tail vein) for determination of parasite burden beginning on the day after the final dose (D5). Percent parasitemia was assessed by direct microscopic analysis of Giemsa-stained blood smears. […] Animals with observable parasitemia following the experiment were euthanized; animals cleared of parasites from the bloodstream were observed daily with assessment of parasitemia performed weekly until day 30, at which point the animals were scored as cured of infection. […] Nonlinear regression analysis was used for objective determination of ED50’s and ED90’s from the accumulated data as well as the nonrecrudescence dose (NRD). The 4 day test protocol was reviewed and approved by the local IACUC board at the Portland VA Medical Center. Experiments were performed with four mice per group to ensure statistical accuracy.

Data set [2] has the same test system. The data set is described as follows: Single-dose cure of blood-stage murine malaria. It counts as in vivo, Plasmodium yoelii. The settings on record: for blood stage in vivo efficacy, single dose cure: lowest single oral dose curing all four mice, day 30. The method, then: as §1
The effectiveness of selected 3-biaryl ELQs and prodrugs was assessed vs the blood-stage infection for single-dose cures. Mice were infected iv with 3.5 × 10^4P. yoelii infected RBCs as described for the 4 day test above. Drug administration occurred on the day after inoculation (day 1). Test agents were dissolved in PEG-400 and administered ig once. On the fifth day, blood films were prepared, and % parasitemia was assessed. Animals remaining parasite-free for 30 days after drug administration were considered cured. The initial dosing range was 0.25, 0.5, 1, 3, and 10 mg/kg, including a control. Experiments were performed with four mice per group to ensure statistical accuracy. The reported parameter for these studies is the lowest single dose that provides a cure to all four animals in the group.

For data set [3], the system named is P. yoelii sporozoites (liver stage). The data set is described as follows: Causal prophylaxis, sporozoite challenge in mice. The note with it: 1.0 mg/kg single oral dose 1 h after 10,000 P. yoelii sporozoites iv; followed 30 days.
Experimental: For this study, mice were inoculated with 10,000 P. yoelii sporozoites via tail vein injections, and drug was administered by gavage an hour later and only once. We monitored for the presence of blood-stage parasites as a measure of liver-stage infection.
Mice were inoculated with 10,000 sporozoites via tail vein injection of CF1 mice treated with or without drug (dissolved in PEG400) 1 h after inoculation. […] Additional monitoring for blood-stage infection was continued for a 30 day period to confirm true causal prophylaxis against P. yoelii challenge. […] Testing involved the use of four animals per group for statistical accuracy. […] A minimum of 5000 red blood cells were examined to establish blood-stage infection. Blood smears were fixed with methanol, stained with Giemsa, and viewed under oil immersion at 1000× magnification under standard light microscopy.
For data set [4], the system named is P. falciparum drug-sensitive D6 strain. The experiment in a line: SYBR Green I antiplasmodial assay, D6 strain. The note with it: Plasmodium falciparum, D6, 72 h, read-out: P. falciparum IC50 values, D6. Type of data set: cell-based. The method, then: (§2) All of this information is stored in a database with information relating to chemical structure, physical chemical properties, cross resistance patterns, mammalian cell cytotoxicity, enzyme inhibitor profiles, and synthesis details. Pharmacological data and in vivo efficacy data are also stored in the database for molecules of particular interest. […] We synthesized the compound in an initial batch size of about 800 mg as described above. […] Fluorescence readings were captured with a fluorescence plate reader and processed by nonlinear regression analysis using the GraphPad Prism software to provide IC50 values for each determination. Stock solutions were freshly prepared daily in DMSO in glass vials.
(§3) Laboratory strains of P. falciparum were cultured in human erythrocytes by standard methods. The parasites were grown in culture medium with fresh human erythrocytes maintained at 2% hematocrit at 37 °C in low-oxygen conditions (5% O2, 5% CO2, 90% N2). […] Cultures were maintained at less than 10% parasitemia by transfer of infected cells to fresh erythrocytes and culture medium every 3 or 4 days.
(§4) SYBR green I assay. In vitro antiplasmodial activity was assessed using a published SYBR Green I fluorescence-based method.[20] The drugs were added to 96-well plates using twofold serial dilutions in complete medium. […] Asynchronous P. falciparum parasites were diluted with uninfected erythrocytes and added to the wells to give a final culture volume of 100 μL at 2% hematocrit and 0.2% parasitemia. […] The parasites were then lysed by adding 100 μL of SYBR green I lysis buffer containing 0.2 μL/ml SYBR green I dye (10,000×) in 20 mM Tris (pH 7.5), 5 mM EDTA, 0.008% (wt/vol) saponin, and 0.08% (v/v) Triton X-100. The plates were incubated at room temperature for an hour in the dark. […] If the IC50 value fell outside of the initially tested range, then the range was adjusted up or down, and the assay was repeated twice.

In data set [5] the test system is P. falciparum multidrug-resistant Dd2 strain. The data set is described as follows: microbe, parasite or virus in culture. It counts as cell-based. The settings on record: Plasmodium falciparum, DD2, 72 h, read-out: P. falciparum IC50 values, Dd2. The protocol: as §2, §3, §4
The subject of data set [6] is P. falciparum atovaquone-resistant clinical isolate Tm90-C2B. The data set is described as follows: SYBR Green I antiplasmodial assay, Tm90-C2B. Type of data set: cell-based. The note with it: Plasmodium falciparum, TM90, 72 h, read-out: P. falciparum IC50 values, Tm90-C2B. The protocol:
as §2, §3, §4

The subject of data set [7] is P. falciparum ELQ-300-resistant D1 clone. The experiment in a line: microbe, parasite or virus in culture. The settings on record: Plasmodium falciparum, 72 h, read-out: P. falciparum IC50 values, D1. Type of data set: cell-based.
Data set [8] can be described thus: HepG2 cytotoxicity / mitochondrial toxicity (TiterGlo ATP, galactose medium). The note with it: human.
Experimental: HepG2 was routinely cultured in DMEM containing 10% fetal calf serum and 100 IU/mL penicillin and 100 μg/mL streptomycin (complete medium). For studies to investigate the potential for mitochondrial toxicity by selected 3-biaryl-ELQs, the medium contained galactose rather than glucose to force the cells to produce ATP through oxidative phosphorylation, which in turn makes them sensitive to mitochondrial toxicants.[36] […] After this period, the culture medium was removed, and the cells were shifted to galactose-containing medium with test drugs at concentrations ranging from 0 to 10 μM. Drug dilutions were prepared from DMSO stocks into galactose-containing medium. […] After incubation, the contents of each well were removed, and 25 μL of TiterGlo II reagent mix containing luciferase, detergent, and luciferin was added to each well along with 25 μL of culture medium. […] At this point, the plates were read on a luminometer (SpectraMax iD3 iD5Multi-Mode Microplate Reader), and the data were processed to yield the percent decrease in ATP production relative to no-drug control values. These values reflect the potential damage caused by mitochondrial toxicants due to reduced intracellular ATP levels caused by interference with the human mitochondrial electron transport chain. Assays were set up in triplicate.
A short description of data set [9]: Metabolic stability in liver microsomes, mouse. It counts as in vitro ADME. The settings on record: pooled mouse liver microsomes, pH 7.4. The protocol:
(§5) […]. Samples were taken over the interval of 45 min and analyzed by LC–MS/MS for the presence of test compound. Ketanserin served as an internal standard for the metabolic rate of a drug with known intermediate stability. […].
(§6) The drug was incubated at 37 °C and 1 μM concentration in murine liver microsomes (Corning) for 45 min at a protein concentration of 0.5 mg/mL in potassium phosphate buffer at pH 7.4 containing 1.0 mM EDTA. The metabolic reaction was initiated by addition of NADPH and quenched with ice-cold acetonitrile at 0, 5, 15, 25, and 45 min.

Data set [10] in a line: Metabolic stability in liver microsomes, rat. Type of data set: in vitro ADME. (Microsomes from liver hold many membrane-bound enzymes, among them those of drug oxidation.)
The nature of data set [11]: Metabolic stability in liver microsomes, human. Type of data set: in vitro ADME. The protocol:
as §5, §6

The mark [12] stands for this setting: oral gavage days 1-4, parasitemia day 5, prodrugs dosed on molar equivalency to parent.
Where [13] appears, read: pH 7.4, predicted intrinsic clearance.

Regarding `CCN(CC)CCCC(C)Nc1ccnc2cc(Cl)ccc12` (stereo not drawn) [CQ], the “blood stage in vivo efficacy, 4 day Peters test results, NRD (nonrecrudescence dose)” value in [1] was above 64 mg/kg/day. The “blood stage in vivo efficacy, single dose cure” value in [2] is on record as above 64 mg/kg/day.

`CCOC(=O)OCOc1c(-c2ccc(Oc3ccc(OC(F)(F)F)cc3)cc2)c(C)nc2cc(OC)c(Cl)cc12` [ELQ-331]: the “blood stage in vivo efficacy, 4 day Peters test results, NRD (nonrecrudescence dose)” value in data set [1] is 1.0 mg/kg/day. Moreover, in [1] (setting [12]), the “blood stage in vivo efficacy, 4 day Peters test results, ED50” value is on record as 0.02 mg/kg/day and the “blood stage in vivo efficacy, 4 day Peters test results, ED90” value worked out at 0.05 mg/kg/day. Besides, in data set [2], the “blood stage in vivo efficacy, single dose cure” value is reported as 3 mg/kg/day. For the same compound, the “lowest fully protective single dose cure” value in data set [2] (single oral dose day 1, aparasitemic day 30, four mice, parent-drug equivalent) worked out at 3 mg/kg. The “liver stage in vivo, # mice protected/total” value in data set [3] is “completely protective and 4/4”.

As a reminder, the IC50 is the concentration that inhibits the measured activity by half. As for `Cc1[nH]c2cc(F)cc(F)c2c(=O)c1-c1ccc(Oc2ccc(OC(F)(F)F)cc2)cc1` [ELQ-400, reference compound], the IC50 in data set [4] came to 0.19 nM; in [5], 0.44 nM; in data set [6], 19.3 nM; in [7] it was 0.73 nM. The IC50 at 24 h in data set [8] amounted to 10000 nM.

Turning to `COc1cc2[nH]c(C)c(-c3ccc(-c4ccc(OC(F)F)cc4)cc3)c(=O)c2cc1Cl` [ELQ-600, 6-Chloro-3-(4′-(difluoromethoxy)-[1,1′-biphenyl]-4-yl)-7-methoxy-2-methylquinolin-4(1H)-one], the IC50 was 3.9 nM in data set [4], 13.4 nM in data set [5], 5.9 nM in data set [6] and above 250 nM in data set [7]. Moreover, in [8] (HepG2 cells), the IC50 at 24 h is above 10000 nM.

Consider `COc1cc2[nH]c(C)c(-c3ccc(-c4cccc(OC(F)(F)F)c4)cc3)c(=O)c2cc1Cl` [ELQ-604, 6-Chloro-7-methoxy-2-methyl-3-(3′-(trifluoromethoxy)-[1,1′-biphenyl]-4-yl)quinolin-4(1H)-one], for which the IC50 in data set [4] was 0.6 nM; in [5] it was 0.5 nM; in [6] it was 0.5 nM; in data set [7] it was above 250 nM. The IC50 at 24 h in data set [8] (HepG2 cells) was above 10000 nM.

For the compound `COc1cc2[nH]c(C)c(-c3ccc(-c4ccc(Cl)cc4)cc3)c(=O)c2cc1Cl` [ELQ-637, 6-Chloro-3-(4′-chloro-[1,1′-biphenyl]-4-yl)-7-methoxy-2-methylquinolin-4(1H)-one], the IC50 is 3.4 nM in data set [4], 7.1 nM in data set [5], 3 nM in data set [6] and above 250 nM in data set [7]. This compound registered an IC50 at 24 h in data set [8] (HepG2 cells) above 10000 nM.

`COc1cc2[nH]c(C)c(-c3ccc(-c4cccc(C(F)(F)F)c4)cc3)c(=O)c2cc1Cl` [ELQ-646, 6-Chloro-7-methoxy-2-methyl-3-(3′-(trifluoromethyl)-[1,1′-biphenyl]-4-yl)quinolin-4(1H)-one]: the IC50 is 1.1 nM in data set [4], 2.7 nM in [5], 1 nM in data set [6] and above 250 nM in data set [7]. The compound also displayed an IC50 at 24 h in [8] (HepG2 cells) above 10000 nM.

As to `COc1cc2[nH]c(C)c(-c3ccc(-c4ccc(C(F)(F)F)cc4)cc3)c(=O)c2cc1Cl` [ELQ-647, 6-Chloro-7-methoxy-2-methyl-3-(4′-(trifluoromethyl)-[1,1′-biphenyl]-4-yl)quinolin-4(1H)-one], the IC50 in [4] is 3.5 nM; in data set [5] it was 7.8 nM; in data set [6], 3.5 nM; in [7], above 250 nM. In data set [8] (HepG2 cells), this compound yielded an IC50 at 24 h above 10000 nM.

For `COc1cc2[nH]c(C)c(-c3ccc(-c4ccc(OC(F)(F)F)cc4)cc3)c(=O)c2cc1F` [ELQ-650, 6-Fluoro-7-methoxy-2-methyl-3-(4′-(trifluoromethoxy)-[1,1′-biphenyl]-4-yl)quinolin-4(1H)-one], the IC50 was determined as 0.8 nM in data set [4], 1.1 nM in data set [5], 0.4 nM in data set [6] and 14 nM in data set [7]. The compound further returned an IC50 at 24 h in data set [8] (HepG2 cells) above 10000 nM.

For `COc1cc2[nH]c(C)c(-c3ccc(-c4ccc(C(F)F)cc4)cc3)c(=O)c2cc1Cl` [ELQ-659, 6-Chloro-3-(4′-(difluoromethyl)-[1,1′-biphenyl]-4-yl)-7-methoxy-2-methylquinolin-4(1H)-one], the IC50 in data set [4] was 1.8 nM; in [5] it was 1.8 nM; in [6], 0.57 nM; in data set [7] it was above 250 nM. This compound also had an IC50 at 24 h in [8] (HepG2 cells) above 10000 nM.

As usually defined, the half-life is the time needed for the level to fall by half in the phase considered. High values mean slow loss, low ones fast loss. Usually CLint scaled stands for the capacity of the preparation to metabolise the compound, expressed as a volume cleared per time. `O=C(c1ccc(F)cc1)C1CCN(CCn2c(=O)[nH]c3ccccc3c2=O)CC1` [ketanserin]: the half-life at 1 μM in data set [9] (mouse liver microsomes 0.5 mg/mL, NADPH, 37 °C, 45 min, 1 μM) turned out to be 19.1 min; in data set [10] (rat, pH 7.4) it was 14.4 min; in data set [11] (human, pH 7.4) it was 27.3 min. Also, the CLint scaled at 1 μM was 286 mL/min/kg in data set [9] (mouse liver microsomes, predicted intrinsic clearance); 172 mL/min/kg in data set [10] (setting [13]); 63.7 mL/min/kg in data set [11] (setting [13]).
